Experiments:
[1] = sample as named; W samples fresh
[2] = in vivo
in vivo [3] = conditions: po
Mouse = test: Genotoxicity: mouse micronucleus; conditions: in vivo
in vivo [4] = conditions: topical or ocular
in vivo [5] = conditions: chicken
Hen = conditions: in vivo
[6] = in vivo; remark: listed apart in the source

Row | SMILES | Independent Lab Cond. [1] [μMHO/cm] | Subchronic Bladder Hyperplasia, level in rats (Bladder) [ppm] | NOEL, subchronic bladder hyperplasia (Bladder; rats) [ppm] | Subchronic Bladder Hyperplasia, observation (Bladder; rats) | Ames (Ames) | Skin Irritation [2] | LD50 (in vivo [3]) [mg/kg] | Mouse micronucleus (Mouse) | LD50 (in vivo [4]) [mg/kg] | LD50 (in vivo [5]) [mg/kg] | Hen Neurotox (Hen) | Eye Irritation [6]
1 | CCCCOP(=O)(OCCCC)Oc1ccccc1 [DBPP, dibutyl phenyl phosphate] | 0.008 |  |  |  |  |  |  |  |  |  |  | 
2 | CC(C)COP(=O)(OCC(C)C)OCC(C)C [TIBP, triisobutyl phosphate] |  | > 5000 | 5000 | None observed | negative | Moderately irritating | > 5000 | negative | > 5000 | > 5000 | Not neurotoxic | Practically non-irritating

From patent publication US5464551A, “Stabilized phosphate ester-based functional fluid compositions” (Monsanto Company, priority 1993, dated 1995)
